Source: patent US11992697B2, “X-ray psoralen activated cancer therapy (X-PACT)” (IMMUNOLIGHT, LLC, priority 2015, dated 2024)

Key:
[1] = system: 4T1-HER2 cells; test: In-vitro X-PACT Annexin V (+) signal by Guava flow cytometry (FIGS. 2B, 4, 5); assay type: cell-based, murine; conditions: component alone; 36 independent irradiation experiments, 1 Gy at 80 kVp
Experimental: Guava Annexin V flow cell cytometry was used to quantify cytotoxicity in 3 murine tumor cell lines (breast-4T1, glioma-CT2A, and sarcoma KP15B8). In-vitro X-PACT studies were conducted on cells prepared in the following manner. Cells were incubated in appropriate growing media and buffers before being trypsinized and plated evenly onto twelve (12) well plates for 24 hours. About 20 minutes prior to X-PACT irradiation, the wells of each plate were exposed to the following combinations of additives: (1) control—cells only with no additives, (2) UVADEX only, (3) phosphors only, (4) UVADEX+phosphors. Each plate had twelve (12) wells with three wells for each of the four treatment arms. […]
Two primary flow cytometry metrics were used to evaluate the X-PACT treatments, both determined at 48h after X-PACT treatment. […] The first metric is metabolically viable cell count (or cell viability) determined from the number of whole cells per well as determined using forward scattering (FSC). […] (All wells on a given plate receive the same dose.) The second metric is Annexin V (+) signal, which is the fraction of the metabolically viable cells which expressed a positive Annexin V signal as determined by flow cell cytometry, and include any cells advancing toward early or late apoptotic cell death. […]

[2] = system: 4T1; test: UV light activated psoralen, Cell-Titer-Glo Luminescence Cell Viability Assay (FIG. 3A); assay type: cell-based, murine; conditions: psoralen 40 μM; UV light 0, 0.25, 0.5, 1.0 J/cm^2
Experimental: (§1) Metabolic cell viability was also assessed visually using Methylene blue staining and ATP-induced Luminescence imaging (Cell-Titer-Glo® Luminescence Cell Viability Assay). The luminescence imaging permitted investigation of the cytotoxicity of psoralen activated directly with a UV lamp, and in the absence of phosphors and x-ray radiation.
(§2) N=4 for each cell line at each UV light condition (0, 0.25, 0.5, 1.0 J/cm^2). The psoralen concentration was 40 μM.

[3] = system: KP158B (sarcoma); test: as above; assay type: cell-based, murine; conditions: psoralen 40 μM; UV light 0, 0.25, 0.5, 1.0 J/cm^2
Experimental: as §1, §2

[4] = system: CT2A (murine malignant glioma); test: as above; assay type: cell-based; conditions: psoralen 40 μM; UV light 0, 0.25, 0.5, 1.0 J/cm^2
Experimental: as §1, §2

[5] = system: syngeneic 4T1-HER2 tumors; test: In-vivo X-PACT trial, tumor growth (FIG. 6); design: species or system BALB/c mice; conditions: 5 μM psoralen (AMT) or 100 μg phosphor with x-ray; compared with expectation from in-vitro data
Experimental: An in-vivo trial was conducted for preliminary evaluation of X-PACT administered to syngeneic 4T1-HER2 tumors grown on BALB/c mice. There were 4 arms of the trial: (1) saline only (control), (2) phosphors alone with x-ray, (3) psoralen (AMT) alone with x-ray, and (4) full X-PACT treatment including both phosphor and psoralen and x-ray irradiation. X-PACT treatments were given in 3 fractions per week, to a total of 6 fractions. In arms 2-3 a consistent x-ray irradiation technique was used (about 1.2 Gy delivered at 75 kVp by 30 mA in 3 minutes) with 100 μg of phosphor, and 5 μM psoralen (AMT) (with μM representing micromolar). 0.5 Million tumor cells were injected per mouse. There were 6-8 mice per arm, and the study was repeated a second time, yielding effective sample sizes of 12-16.
In this evaluation, X-PACT treatment was applied to BALBC mice with syngeneic 4T1-HER2 tumors. In the separate psoralen and phosphor control arms (blue and red respectively), 5 μM psoralen (AMT) and 100 μg of phosphor where applied. A consistent x-ray irradiation technique was used for all arms (except saline control) which was 2 Gy delivered at 75 kVp by 30 mA in 3 minutes.

Question: With `O=c1ccc2cc3ccoc3cc2o1` [psoralen] as the molecule, how does the “effect on cytotoxicity (Annexin V signal), multi-variable regression” value [1] read?
Answer: Its value is “neither psoralen nor phosphor alone had a strong effect”.

Question: And the “effect of UV light activated psoralen on viable cells” value (shortened to “effect of UV light activated psoralen”) [2]?
Answer: Its value is “reduce viable cells”.

Question: What about the “effect of UV light activated psoralen” value [3] of the same molecule?
Answer: Its value is “reduce viable cells”.

Question: And the “effect of UV light activated psoralen” value [4]?
Answer: Its value is “reduce viable cells”.

Question: And the “component effect on tumor growth (single-component arm with x-ray)” value [5]?
Answer: Its value is “slightly higher component effect”.
